Test results from patent US20210060030A1, “METHOD FOR TREATING CANCER” (Epizyme, Inc., priority 2014, published 2021).
Entries after “also recorded” stand apart in the source; their conditions may differ.

Tests used:
[1] = tested on: H3K27Me3 positive cells in the epidermis; experiment: Skin biopsy H3K27Me3 immunohistochemistry and PK/PD model; format: in vivo, human
Method: (§1) PK/PD relationship was analyzed. Tumor assessments were performed every 8 weeks.
Skin biopsies were collected predose (Cycle 1, Day 1) and predose prior to Cycle 2, Day 1 for immunohistochemistry analysis.
An inhibitory Emax PK/PD model was fit to describe this relationship.

clinical = details: human, in vivo; for AUC(0-t): AUC0-12 hr
Method: Blood samples for PK and skin biopsies for PD analysis were collected. PD samples were stained with H3K27me3 specific antibody and percent change from baseline in H3K27Me3 positive cells was determined. PK/PD relationship was analyzed. Tumor assessments were performed every 8 weeks.
Doses administered were 100 mg BID as a suspension (n=3) or tablet (n=3) formulation and 200, 400, 800 and 1600 mg as tablet formulation.

[2] = format: in vivo; details: dose escalation up to 1600 mg BID
Method: Phase 1 dose escalation is being performed to determine maximum tolerated dose (MTD) safety, PK, PD, and preliminary anti-tumor activity in patients (“pts”) with B cell lymphoma or advanced solid tumors.
as §1

[3] = tested on: advanced solid tumors or B cell lymphoma; experiment: Phase 1 tumor assessments (anti-tumor activity); format: in vivo, human
Method: as §1

ABC lymphoma cell lines = experiment: Combination with drugs that target the BCR/PI3K pathways in ABC lymphoma cell lines; format: cell-based

Structure (SMILES): CCN(c1cc(-c2ccc(CN3CCOCC3)cc2)cc(C(=O)NCc2c(C)cc(C)[nH]c2=O)c1C)C1CCOCC1 [EPZ-6438]
- maximal inhibition (Imax) of H3K27Me3 positive cells in skin ([1]; inhibitory Emax PK/PD model estimate): −44.4%
- exposure associated with 50% of maximal inhibition (IC50) ([1]; inhibitory Emax PK/PD model estimate, AUC exposure): 487 ng·h/mL
- exposure associated with 90% of maximal inhibition (IC90) ([1]; model predicted, AUC exposure): 4421 ng·h/mL
- H3K27Me3 positive cells in skin ([1]; skin biopsies, Cycle 2 Day 1 vs predose baseline): exposure-related decrease; also recorded: consistent decrease
- AUC0-12 hr (clinical; 100 mg): 337 ng·h/mL
- Tmax (clinical; 100 mg): 1.0 h
- AUC(0-t) (clinical; 100 mg): 467 ng·h/mL
- Tmax (clinical; 100 mg, Tmax): 0.5 h
- AUC(0-t) (clinical; 200 mg): 1250 ng·h/mL
- Cmax (clinical; 200 mg, Cmax): 363 ng/mL
- Tmax (clinical; 200 mg, Tmax): 1 h
- half-life (clinical; 200 mg, t1/2): 3.42 h
- AUC(0-t) (clinical; 400 mg): 1720 ng·h/mL
- Cmax (clinical; 400 mg, Cmax): 476 ng/mL
- Tmax (clinical; 400 mg, Tmax): 2 h
- half-life (clinical; 400 mg, t1/2): 2.88 h
- AUC (clinical; 800 mg): 4550 ng·h/mL
- AUC(0-t) (clinical; 800 mg): 7800 ng·h/mL
- Cmax (clinical; 800 mg, Cmax): 1730 ng/mL
- Tmax (clinical; 800 mg, Tmax): 2 h
- half-life (clinical; 800 mg, t1/2): 3.81 h
- Cmax (clinical; 1600 mg): 4125 ng/mL
- AUC(0-t) (clinical; 1600 mg): 18900 ng·h/mL
- Tmax (clinical; 1600 mg, Tmax): 2 h
- half-life (clinical; 1600 mg, t1/2): 3.67 h
- half-life (clinical; mean EPZ-6438 terminal half-life (t½)): 3 to 6 h
- Tmax (clinical; po, Tmax): 1 to 2 h
- half-life (clinical; po, half-life): ~4 h
- half-life (clinical; terminal half-life (t½)): 3 to 6 h
- MTD [2]: has not been reached
- Maximum tumor change ([3]; 100 mg dose group): −78%
- Maximum tumor change ([3]; 200mg dose group): −87%
- Partial responses in evaluable NHL pts ([3]; 1 transformed DLBCL, 100mg BID, and 1 PMBL, 200mg BID): 2 of 4
- effect of combination with drugs that target the BCR/PI3K pathways (ABC lymphoma cell lines): no effect observed
